# From US7696218B2, “Substituted 1,3-dialkyl-2,4-dioxo-6-(arylamino)-1,2,3,4-tetrahydropyrimidine-5-hydroxamic acid inhibitors of MAPK/ERK kinase” (Takeda San Diego, Inc., priority 2006, dated 2010)
# Biological target: T1, MEK2 (Homo sapiens, UniProt P36507, S222E/S226D)
# T1 construct: 6-histidine tag (N); made in house; host or cells: Spodoptera frugiperda Sf9 (baculovirus) for MEK2; E. coli for ERK1
# Test: MEK2 inhibition assay, fluorescence polarization with IMAP beads (ERK1 / FI-Erktide substrate)
# Type: biochemical
# Details: 4 nM MEK2, 25 nM ERK1, 400 μM ATP, 500 nM FI-Erktide, 1% DMSO, 22 min at room temperature; values given as ranges; read-out: IC50 of Exemplified Compounds Against MEK2
# Text: For MEK2, DNA encoding residues 1-400 (S222E/S226D) of the full-length sequence of the human enzyme may be amplified by PCR and cloned into pFastbac (Invitrogen), which incorporates a 6-histidine tag at the N-terminus. The two mutations, S222E and S226D, may be obtained by quick change PCR. SEQ ID NO: 3 corresponds to residues 1-400 with mutations S222E/S226D, and with the N-terminal 6-histidine tag and SEQ ID NO: 4 is the DNA sequence that was used to encode SEQ ID NO: 3.
# Recombinant baculovirus incorporating the MEK1 and MEK2 constructs may be generated by transposition using the Bac-to-Bac system (Invitrogen). High-titer viral stocks may be generated by infection of Spodoptera frugiperda Sf9 cells; the expression of recombinant protein may be carried out by infection of Spodoptera frugiperda Sf9 (Invitrogen) in 5L Wave Bioreactors (Wave Biotech).
# Recombinant protein may be isolated from cellular extracts by passage over ProBond resin (Invitrogen). Partially purified extracts of all MEK1 may then be further purified by high pressure liquid chromatography over a SEC2000 gel filtration resin. The purity of MEK1 and MEK2 proteins may be determined on denaturing SDS-PAGE gel. Purified MEK1 and MEK2 may then be concentrated to a final concentration of 3.4 mg/ml and 5.4 mg/ml, respectively. The proteins may be either stored at −78° C. in a buffer containing 50 mM TRIS-HCl pH 7.6, 250 mM NaCl, 0.1 mM EDTA and 0.125 mM TCEP or at −20° C. in the presence of glycerol (final concentration of glycerol at 50%).
# The inhibitory properties of compounds relative to MEK1 or MEK2 may be determined using a black 384-well-plate format under the following reaction conditions: 50 mM HEPES pH 7.3, 10 mM NaCl, 10 mM MgCl2, 0.01% Brij35, 1 nM MEK1 or 4 nM MEK2, 25 nM ERK1, 400 μM ATP, 500 nM IPTTPITTYFFFK-5FAM-COOH (FI-Erktide), and 1% DMSO. Reaction product is determined quantitatively by fluorescent polarization using progressive IMAP beads from Molecular Devices.
# The assay reaction may be initiated as follows: 2 μl of the mixture of 1.5 μM FI-Erktide and 75 nM ERK with 2 μl of inhibitor (2 fold serial dilutions for 11 data points for each inhibitor) containing 3% DMSO were added to each well of the plate, followed by the addition of 2 μl of the mixture of 3 nM MEK1 or 12 nM MEK2 and 1200 μM ATP to initiate the reaction (final enzyme concentration was 1 nM for MEK1 or 4 nM for MEK2). The reaction mixture may then be incubated at room temperature for 22 min, and quenched and developed by addition of 20 μl of 1:200 dilution of progressive IMAP beads (Molecular Devices) in 80% buffer A, 20% bufferB and 0.003% Tween 20. Fluorescence polarization of the resulting reaction mixtures may be measured after a 1 hour incubation at room temperature.
# IC50 values may be calculated by non-linear curve fitting of the compound concentrations and fluorescence polarization signal to the standard IC50 equation.
# T1 sequence (P36507 with tags, fused parts or gaps S222E/S226D): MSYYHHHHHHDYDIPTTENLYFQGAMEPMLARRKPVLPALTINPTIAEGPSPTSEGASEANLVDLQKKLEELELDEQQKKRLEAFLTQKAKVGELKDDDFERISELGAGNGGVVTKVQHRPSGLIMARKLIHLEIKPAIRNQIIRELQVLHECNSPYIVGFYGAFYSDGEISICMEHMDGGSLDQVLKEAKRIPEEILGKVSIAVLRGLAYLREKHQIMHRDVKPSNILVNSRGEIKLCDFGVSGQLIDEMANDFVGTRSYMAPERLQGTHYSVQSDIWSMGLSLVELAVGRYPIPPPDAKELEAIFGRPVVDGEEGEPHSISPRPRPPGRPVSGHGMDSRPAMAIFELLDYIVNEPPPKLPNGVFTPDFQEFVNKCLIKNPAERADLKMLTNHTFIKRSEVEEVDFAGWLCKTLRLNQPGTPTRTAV
row,SMILES,IC50 [nM]
1,"COCC(=O)c1c(Nc2ccc(I)cc2F)n(C)c(=O)n(C)c1=O [Example 12, 6-(2-Fluoro-4-iodophenylamino)-5-(2-methoxyacetyl)-1,3-dimethylpyrimidine-2,4(1H,3H)-dione]",2500 to 25000
2,"Cn1c(Nc2ccc(I)cc2F)c(C(=O)NOCC2CC2)c(=O)n(C)c1=O [Example 4, N-(cyclopropylmethoxy)-6-(2-fluoro-4-iodophenylamino)-1,3-dimethyl-2,4-dioxo-1,2,3,4-tetrahydropyrimidine-5-carboxamide]",501 to 2500
3,"Cn1c(Nc2ccc(I)cc2F)c(C(=O)N2CCNCC2)c(=O)n(C)c1=O [Example 43, 6-(2-Fluoro-4-iodophenylamino)-1,3-dimethyl-5-(piperazine-1-carbonyl)pyrimidine-2,4(1H,3H)-dione]",> 25000
4,"Cc1cc(C(=O)c2c(Nc3ccc(I)cc3F)n(C)c(=O)n(C)c2=O)no1 [Example 30, 6-(2-Fluoro-4-iodophenylamino)-1,3-dimethyl-5-(5-methylisoxazole-3-carbonyl)pyrimidine-2,4(1H,3H)-dione]",> 25000
5,"Cn1c(Nc2ccc(I)cc2F)c(C(=O)NOC[C@@H](O)CO)c(=O)n(C)c1=O [Example 37, (S)-N-(2,3-Dihydroxypropoxy)-6-(2-fluoro-4-iodophenylamino)-1,3-dimethyl-2,4-dioxo-1,2,3,4-tetrahydropyrimidine-5-carboxamide]",≤ 500
